Measured values reported in patent publication US20210368793A1, “Method for Controlling PPO Resistant Weeds” (BASF SE, priority 2016, published 2021).

Columns and labels:
Type in all cases: in vivo
[1] = system: Amaranthus tamariscinus (common waterhemp, AMATA), sensitive biotype (w.1); assay: Greenhouse herbicidal test, sensitive common waterhemp (w.1); conditions: for Weed control (%) w.1: sensitive biotype, scale 0 (no damage) to 100 (complete destruction)
Description: (§1) The culture containers used were plastic flowerpots containing loamy sand with approximately 3.0% of humus as the substrate. The seeds of the test plants were sown separately for each species and/or resistant biotype. For the pre-emergence treatment, the active ingredients, which had been suspended or emulsified in water, were applied directly after sowing by means of finely distributing nozzles. The containers were irrigated gently to promote germination and growth and subsequently covered with transparent plastic hoods until the plants had rooted. This cover caused uniform germination of the test plants, unless this had been impaired by the active ingredients. For the post-emergence treatment, the test plants were first grown to a height of 3 to 15 cm, depending on the plant habit, and only then treated with the active ingredients which had been suspended or emulsified in water. For this purpose, the test plants were either sown directly and grown in the same containers, or they were first grown separately as seedlings and transplanted into the test containers a few days prior to treatment. Depending on the species, the plants were kept at 10-25° C. or 20-35° C., respectively. The test period extended over 2 to 4 weeks. During this time, the plants were tended, and their response to the individual treatments was evaluated. The evaluation was carried out by using a scale from 0 to 100. 100 means no emergence of the plants or complete destruction of at least the above-ground parts, and 0 means no damage, or normal course of growth.
(§2) The plants used in the greenhouse experiments were of the following species and biotype: […]

[2] = system: Amaranthus tamariscinus (common waterhemp, AMATA), PPO resistant biotype 1 containing the ΔG210 mutation (w.2); assay: Greenhouse herbicidal test, PPO resistant common waterhemp biotype 1 (w.2); conditions: for activity on resistant weeds (w.2), in words: summary of the table, 2 and 4 g/ha, ΔG210 mutation; for Weed control (%) w.2: PPO resistant biotype 1 (ΔG210), scale 0 to 100
Description: as §1, §2

[3] = system: Amaranthus tamariscinus (common waterhemp, AMATA), PPO resistant biotype 2 containing the ΔG210 mutation (w.3); assay: Greenhouse herbicidal test, PPO resistant common waterhemp biotype 2 (w.3); conditions: for activity on resistant weeds (w.3), in words: summary of the table, 2 and 4 g/ha, ΔG210 mutation; for Weed control (%) w.3: PPO resistant biotype 2 (ΔG210), scale 0 to 100
Description: as §1, §2

Row | SMILES | activity on sensitive weeds (w.1), in words ([1]; summary of the table, 2 and 4 g/ha) | Weed control (%) w.1 ([1]; use rate 2 g/ha) | Weed control (%) w.1 ([1]; use rate 4 g/ha) | activity on resistant weeds (w.2), in words [2] | Weed control (%) w.2 ([2]; use rate 2 g/ha) | Weed control (%) w.2 ([2]; use rate 4 g/ha) | activity on resistant weeds (w.3), in words [3] | Weed control (%) w.3 ([3]; use rate 2 g/ha) | Weed control (%) w.3 ([3]; use rate 4 g/ha)
1 | O=C1[C@H]2C[C@H](F)CN2C(=O)N1c1cc(NS(=O)(=O)CCl)c(Cl)cc1F [(I).1, profluazol] | very good activity | 88% | 100% | very good activity | 78% | 92% | very good activity | 80% | 88%
2 | C#CCOc1cc(-n2nc3n(c2=O)CCCC3)c(Cl)cc1Cl [azafenidin, reference compound] |  | 88% | 100% | much weaker control of resistant in comparison to sensitive biotypes | 62% | 78% | much weaker control of resistant in comparison to sensitive biotypes | 77% | 77%
